Experimental findings from ChEMBL document CHEMBL1126121, “Non-prostanoid thromboxane A2 receptor antagonists with a dibenzoxepin ring system. 1” (J Med Chem, 1992) are described below.

The target of assay [1] is T1, Thromboxane-A synthase (Homo sapiens) (UniProt P24557).
T1 sequence (whole entry): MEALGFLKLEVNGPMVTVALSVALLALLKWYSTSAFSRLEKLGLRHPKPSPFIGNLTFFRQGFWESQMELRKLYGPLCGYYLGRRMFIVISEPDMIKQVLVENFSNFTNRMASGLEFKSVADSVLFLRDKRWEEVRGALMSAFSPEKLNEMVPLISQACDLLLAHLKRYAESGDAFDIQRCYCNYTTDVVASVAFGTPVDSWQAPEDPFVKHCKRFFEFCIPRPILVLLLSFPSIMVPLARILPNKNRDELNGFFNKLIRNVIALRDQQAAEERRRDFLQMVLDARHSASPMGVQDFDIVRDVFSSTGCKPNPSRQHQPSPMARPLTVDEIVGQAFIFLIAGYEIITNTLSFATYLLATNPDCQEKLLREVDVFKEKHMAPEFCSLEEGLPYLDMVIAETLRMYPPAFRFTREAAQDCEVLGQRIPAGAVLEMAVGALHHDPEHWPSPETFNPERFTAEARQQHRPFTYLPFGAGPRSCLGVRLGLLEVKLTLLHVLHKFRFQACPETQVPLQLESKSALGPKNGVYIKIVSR
The assay is described as follows: Inhibitory activity against thromboxane A2 synthase obtained from bovine platelet microsomes at 10 uM. As to conditions: Bos taurus, target entry is the homologue from another species.

Assay [2] concerns the target T2, Thromboxane A2 receptor (Homo sapiens) (UniProt P21731).
T2 sequence (whole entry): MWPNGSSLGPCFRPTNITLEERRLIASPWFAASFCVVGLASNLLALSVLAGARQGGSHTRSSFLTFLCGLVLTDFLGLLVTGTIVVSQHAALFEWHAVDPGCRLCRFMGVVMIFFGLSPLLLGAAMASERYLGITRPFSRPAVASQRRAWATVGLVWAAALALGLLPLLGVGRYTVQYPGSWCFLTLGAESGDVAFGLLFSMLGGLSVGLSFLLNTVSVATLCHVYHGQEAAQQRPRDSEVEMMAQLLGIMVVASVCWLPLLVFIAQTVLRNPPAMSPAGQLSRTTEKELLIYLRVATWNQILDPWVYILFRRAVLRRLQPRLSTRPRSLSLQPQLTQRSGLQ
The assay is described as follows: Binding affinity for thromboxane A2 receptor by measuring its ability to displace [3H]U-46619 from guinea pig platelets at 0.1 uM. The settings on record: Cavia porcellus, target entry is the homologue from another species.

The target in assay [3] is T2, Thromboxane A2 receptor (Homo sapiens). In words: Inhibitory effect against binding thromboxane A2 receptor on guinea pig platelets using [3H]U-46619 as radioligand at 1 uM concentration. As to conditions: Cavia porcellus, target entry is the homologue from another species.
For assay [4] the target is unchanged. In words: Binding affinity for thromboxane A2 receptor by measuring ability to displace [3H]U-46619 from guinea pig platelets at 1 uM. The settings on record: Cavia porcellus, target entry is the homologue from another species.
For assay [5], the system named is Thromboxane-A synthase (Bos taurus). In words: Inhibitory effect against thromboxane A2 synthase from bovine platelets at 10 uM concentration.
In assay [6] the test system is Cavia porcellus. In words: Inhibitory effect of the compounds on U-46619-induced platelet aggregation ex vivo in guinea pig at the dose of 10 mg/kg 2 hr after oral administration. Type of assay: functional.
Assay [7] concerns Cavia porcellus. The assay is described as follows: Compound was tested ex vivo for it''s inhibition of U-46619 induced platelet aggregation in the guinea pig after 2 hr of administration at dose 10 mg/kg. Type of assay: functional.

The inhibition is the drop in the measured response relative to a control, in per cent. Turning to `COc1cc(C(=O)NCCSC2c3ccccc3COc3ccc(C(=O)O)cc32)cc(OC)c1OC` (stereo not given), the inhibition amounted to 92% in assay [1]; 50% in assay [2]; 87% in assay [3]; 87% in assay [4]; 92% in assay [5].
With `Cc1ccsc1C(=O)NCCSC1c2ccccc2COc2ccc(C(=O)O)cc21` (stereo not given), the inhibition amounted to 79% in assay [1]; 81% in assay [2]; 94% in assay [3]; 94% in assay [4]; 79% in assay [5].
For `COc1ccc(C(=O)NCCSC2c3ccccc3COc3ccc(C(=O)O)cc32)c(OC)c1OC` (stereo not given), the inhibition in assay [2] amounted to 82%; in assay [3] it was 97%; in assay [4], 97%.
For `O=C(O)c1ccc2c(c1)C(SCCNS(=O)(=O)c1ccccc1[N+](=O)[O-])c1ccccc1CO2` (stereo not given), the inhibition was 72% in assay [1]; 72% in assay [2]; 99% in assay [3]; 99% in assay [4]; 79% in assay [5].
Turning to `O=C(NCCSC1c2ccccc2COc2ccc(C(=O)O)cc21)NCc1ccccc1` (stereo not given), the inhibition in assay [1] is 41%; in assay [2], 47%; in assay [3], 87%; in assay [4] it was 87%; in assay [5] it was 41%.
Turning to `O=C(O)c1ccc2c(c1)C(SCCNS(=O)(=O)c1ccc([N+](=O)[O-])cc1)c1ccccc1CO2` (stereo not given), the inhibition in assay [1] came out at 41%; in assay [2], 58%; in assay [3] it was 90%; in assay [4] it was 90%; in assay [5], 41%.
For `CCCCCC(=O)NCCSC1c2ccccc2COc2ccc(C(=O)O)cc21` (stereo not given), the inhibition in assay [1] worked out at 4%; in assay [2], 51%; in assay [3], 88%; in assay [4] it was 88%; in assay [5], 4%.
`COc1ccc(S(=O)(=O)NCCSC2c3ccccc3COc3ccc(C(=O)O)cc32)cc1OC` (stereo not given): the inhibition was determined as 70% in assay [1]; 49% in assay [2]; 91% in assay [3]; 91% in assay [4]; 70% in assay [5].
In the case of `COc1ccccc1C(=O)NCCSC1c2ccccc2COc2ccc(C(=O)O)cc21` (stereo not given), the inhibition in assay [2] stood at 86%; in assay [3], 97%; in assay [4], 97%.
For the compound `COc1ccc(S(=O)(=O)NCCSC2c3ccccc3COc3ccc(C(=O)O)cc32)cc1` (stereo not given), the inhibition in assay [1] was found to be 75%; in assay [2], 83%; in assay [3], 93%; in assay [4], 93%; in assay [5] it was 75%.
Take `O=C(O)c1ccc2c(c1)C(SCCNC(=O)C1CCCCC1)c1ccccc1CO2` (stereo not given): the inhibition in assay [1] turned out to be 19%; in assay [2], 20%; in assay [3], 66%; in assay [4], 66%; in assay [5] it was 19%.
Consider `O=C(O)Cc1ccc2c(c1)C(SCCNS(=O)(=O)c1ccccc1)c1ccccc1CO2` (stereo not given), for which the inhibition in assay [1] came out at 13%; in assay [2], 30%; in assay [4], 84%.
Regarding `COc1ccc(OC)c(S(=O)(=O)NCCSC2c3ccccc3COc3ccc(C(=O)O)cc32)c1` (stereo not given), the inhibition was 62% in assay [1]; 66% in assay [2]; 92% in assay [3]; 92% in assay [4]; 62% in assay [5].
For the compound `O=C(O)c1ccc2c(c1)C(SCCNS(=O)(=O)c1ccc(Cl)cc1)c1ccccc1CO2` (stereo not given), the inhibition in assay [1] was found to be 79%; in assay [2], 64%; in assay [3], 94%; in assay [4] it was 94%; in assay [5] it was 79%.
As for `O=C(O)c1ccc2c(c1)C(SCCNC(=O)c1ccccc1O)c1ccccc1CO2` (stereo not given), the inhibition came out at 53% in assay [1]; 90% in assay [2]; 99% in assay [3]; 99% in assay [4]; 53% in assay [5]. This compound also gave a Platelet aggregation with Cavia porcellus [6] of 64.5%. This compound registered an Aggregation with Cavia porcellus [7] of 64.5%.
`CN(CCSC1c2ccccc2COc2ccc(C(=O)O)cc21)S(=O)(=O)c1ccccc1` (stereo not given): the inhibition is 73% in assay [2], 92% in assay [3] and 92% in assay [4].
Consider `O=C(O)c1ccc2c(c1)C(SCCNS(=O)(=O)c1ccccc1)c1ccccc1C=C2` (stereo not given), for which the inhibition in assay [1] was 74%; in assay [2], 67%; in assay [3] it was 97%; in assay [4], 97%; in assay [5], 74%.
`O=C(O)c1ccc2c(c1)C(SCCNS(=O)(=O)c1cccc([N+](=O)[O-])c1)c1ccccc1CO2` (stereo not given): the inhibition in assay [1] is 54%; in assay [2], 83%; in assay [3], 93%; in assay [4] it was 93%; in assay [5], 54%.
As for `O=C(O)c1ccc2c(c1)C(SCCNS(=O)(=O)c1ccccc1)c1ccccc1CC2` (stereo not given), the inhibition in assay [1] stood at 68%; in assay [2], 71%; in assay [3], 95%; in assay [4], 95%; in assay [5], 68%.
With `O=C(O)c1ccc2c(c1)C(SCCNS(=O)(=O)c1ccc(F)cc1)c1ccccc1CO2` (stereo not given), the inhibition in assay [1] was determined as 33%; in assay [2], 61%; in assay [3] it was 93%; in assay [4], 93%; in assay [5], 33%.
On to `O=C(O)c1ccc2c(c1)C(SCCNS(=O)(=O)c1cccc3cccnc13)c1ccccc1CO2` (stereo not given), for which the inhibition turned out to be 63% in assay [1]; 44% in assay [2]; 90% in assay [3]; 90% in assay [4]; 63% in assay [5].
`Cc1ccc(S(=O)(=O)NCCSC2c3ccccc3COc3ccc(C(=O)O)cc32)cc1` (stereo not given): the inhibition in assay [1] was found to be 77%; in assay [2], 76%; in assay [3], 93%; in assay [4], 93%; in assay [5], 77%.
In the case of `O=C(O)c1ccc2c(c1)OCc1ccccc1C2SCCNS(=O)(=O)c1ccccc1` (stereo not given), the inhibition in assay [1] was 96%; in assay [2], -3%; in assay [3], 36%; in assay [4] it was 36%; in assay [5], 96%.
For the compound `O=C(O)c1ccc2c(c1)C(SCCNS(=O)(=O)c1ccccc1)c1ccccc1OC2` (stereo not given), the inhibition in assay [1] was found to be 53%; in assay [2] it was 21%; in assay [3], 64%; in assay [4], 64%; in assay [5], 53%.
`Cc1ccc2c(c1)C(SCCNS(=O)(=O)c1ccccc1)c1ccccc1CO2` (stereo not given): the inhibition in assay [1] was -10%; in assay [2], 1%; in assay [3] it was 27%; in assay [4], 27%; in assay [5] it was -10%.
As for `O=C(O)c1ccc2c(c1)C(SCCNS(=O)(=O)c1ccc(C(F)(F)F)cc1)c1ccccc1CO2` (stereo not given), the inhibition was -9% in assay [1]; 70% in assay [2]; 92% in assay [3]; 92% in assay [4]; -9% in assay [5].
In the case of `O=C(O)c1ccc2c(c1)C(SCCNS(=O)(=O)c1cccnc1)c1ccccc1CO2` (stereo not given), the inhibition in assay [2] came out at 67%; in assay [3], 93%; in assay [4] it was 93%.
As to `O=C(NCCSC1c2ccccc2COc2ccc(C(=O)O)cc21)Nc1ccccc1` (stereo not given), the inhibition stood at 58% in assay [1]; 67% in assay [2]; 98% in assay [3]; 98% in assay [4]; 58% in assay [5].
For `O=C(O)c1cccc(C(SCCNS(=O)(=O)c2ccccc2)c2ccccc2)c1` (stereo not given), the inhibition in assay [1] was 19%; in assay [2], 41%; in assay [3], 85%; in assay [4], 85%; in assay [5], 19%.
Take `COc1cccc(OC)c1C(=O)NCCSC1c2ccccc2COc2ccc(C(=O)O)cc21` (stereo not given): the inhibition in assay [2] stood at 20%; in assay [3], 72%; in assay [4], 72%.
